We go through two compounds from ChEMBL document CHEMBL3994655, “Methylsulfonyl benzothiazoles (MSBT) derivatives: Search for new potential antimicrobial and anticancer agents” (2017).

Values after ≈ are worked out from the molar mass of the structure shown. Where only a bound is given, the exact number is not on record here.

For one assay, the system named is Staphylococcus aureus. The assay can be described thus: Antibacterial activity against Staphylococcus aureus 209P assessed as zone of inhibition at 5 mg/ml by agar well diffusion method. The settings on record: read-out: DIZ. The format is functional.
Take `CCOc1ccc2sc(S(C)(=O)=O)nc2c1S(=O)(=O)NC(CC)CC`: the zone of inhibition at 5000 µg/mL was determined as 21 mm.

For the compound `CCOc1ccc2sc(S(C)(=O)=O)nc2c1S(=O)(=O)Nc1ccc([N+](=O)[O-])cc1`, the zone of inhibition at 5000 µg/mL worked out at 16 mm.

In a further assay the test system is Escherichia coli. The assay can be described thus: Antibacterial activity against Escherichia coli ATCC 35421 assessed as zone of inhibition at 5 mg/ml by agar well diffusion method. The format is functional. The settings on record: read-out: DIZ. In general terms: In agar diffusion tests the substance spreads into inoculated agar from a disc or well.
`CCOc1ccc2sc(S(C)(=O)=O)nc2c1S(=O)(=O)NC(CC)CC`: the zone of inhibition at 5000 µg/mL was found to be 10 mm.

With `CCOc1ccc2sc(S(C)(=O)=O)nc2c1S(=O)(=O)Nc1ccc([N+](=O)[O-])cc1`, the zone of inhibition at 5000 µg/mL worked out at 10 mm.

The test system of a further assay is Candida albicans. The assay can be described thus: Antifungal activity against Candida albicans A01 assessed as zone of inhibition at 5 mg/ml by agar well diffusion method. The format is functional. The settings on record: read-out: DIZ.
As for `CCOc1ccc2sc(S(C)(=O)=O)nc2c1S(=O)(=O)NC(CC)CC`, the zone of inhibition at 5000 µg/mL was no more than 7 mm.

As for `CCOc1ccc2sc(S(C)(=O)=O)nc2c1S(=O)(=O)Nc1ccc([N+](=O)[O-])cc1`, the zone of inhibition at 5000 µg/mL is no more than 7 mm.

In the next assay the test system is Staphylococcus aureus. The assay can be described thus: Antibacterial activity against Staphylococcus aureus 209P assessed as zone of inhibition at 1 mg/ml by agar well diffusion method. The format is functional. The settings on record: read-out: DIZ.
Turning to `CCOc1ccc2sc(S(C)(=O)=O)nc2c1S(=O)(=O)NC(CC)CC`, the zone of inhibition at 1000 µg/mL amounted to 13 mm.

`CCOc1ccc2sc(S(C)(=O)=O)nc2c1S(=O)(=O)Nc1ccc([N+](=O)[O-])cc1`: the zone of inhibition at 1000 µg/mL was found to be 14 mm.

The test system of another assay is Escherichia coli. The assay can be described thus: Antibacterial activity against Escherichia coli ATCC 35421 assessed as zone of inhibition at 1 mg/ml by agar well diffusion method. The settings on record: read-out: DIZ. Format: functional.
For `CCOc1ccc2sc(S(C)(=O)=O)nc2c1S(=O)(=O)NC(CC)CC`, the zone of inhibition at 1000 µg/mL amounted to 9 mm.

For the compound `CCOc1ccc2sc(S(C)(=O)=O)nc2c1S(=O)(=O)Nc1ccc([N+](=O)[O-])cc1`, the zone of inhibition at 1000 µg/mL stood at 9 mm.

For the next assay, the system named is Candida albicans. The assay can be described thus: Antifungal activity against Candida albicans A01 assessed as zone of inhibition at 1 mg/ml by agar well diffusion method. The format is functional. The settings on record: read-out: DIZ.
Turning to `CCOc1ccc2sc(S(C)(=O)=O)nc2c1S(=O)(=O)NC(CC)CC`, the zone of inhibition at 1000 µg/mL is no more than 7 mm.

On to `CCOc1ccc2sc(S(C)(=O)=O)nc2c1S(=O)(=O)Nc1ccc([N+](=O)[O-])cc1`, for which the zone of inhibition at 1000 µg/mL was no more than 7 mm.

The next assay has as its system Staphylococcus aureus. The assay can be described thus: Antibacterial activity against Staphylococcus aureus 209P after 24 to 48 hrs by macro-broth dilution method. Format: functional.
Conditions: not given
By MIC is commonly meant the lowest concentration found to suppress growth. Low readings indicate inhibition by little substance, high ones a need for much substance. The compound `CCOc1ccc2sc(S(C)(=O)=O)nc2c1S(=O)(=O)NC(CC)CC` registered a minimum inhibitory concentration (MIC) of 50 µg/mL (≈ 123 µM).

As to `CCOc1ccc2sc(S(C)(=O)=O)nc2c1S(=O)(=O)Nc1ccc([N+](=O)[O-])cc1`, the MIC came to 10 µg/mL (≈ 21.9 µM).

In another assay the test system is Staphylococcus aureus. The assay can be described thus: Antibacterial activity against methicillin-resistant Staphylococcus aureus 3710 after 24 to 48 hrs by macro-broth dilution method. Format: functional.
Conditions: not given
(In general: Broth dilution looks for growth in wells or tubes with falling amounts of substance.)
Compound `CCOc1ccc2sc(S(C)(=O)=O)nc2c1S(=O)(=O)NC(CC)CC` returned an MIC of 100 µg/mL (≈ 246 µM).

Consider `CCOc1ccc2sc(S(C)(=O)=O)nc2c1S(=O)(=O)Nc1ccc([N+](=O)[O-])cc1`, for which the lowest concentration to inhibit growth (MIC) was 10 µg/mL (≈ 21.9 µM).

The subject of another assay is Staphylococcus aureus. The assay can be described thus: Antibacterial activity against methicillin-resistant Staphylococcus aureus ATCC 33591 after 24 to 48 hrs by macro-broth dilution method.
Conditions: not given
The format is functional.
Turning to `CCOc1ccc2sc(S(C)(=O)=O)nc2c1S(=O)(=O)NC(CC)CC`, the MIC is 100 µg/mL (≈ 246 µM).

Regarding `CCOc1ccc2sc(S(C)(=O)=O)nc2c1S(=O)(=O)Nc1ccc([N+](=O)[O-])cc1`, the MIC was found to be 10 µg/mL (≈ 21.9 µM).

For the next assay, the system named is Staphylococcus epidermidis. The assay can be described thus: Antibacterial activity against Staphylococcus epidermidis 209E after 24 to 48 hrs by macro-broth dilution method.
Conditions: not given
Format: functional.
In turn, `CCOc1ccc2sc(S(C)(=O)=O)nc2c1S(=O)(=O)NC(CC)CC` registered an MIC of 50 µg/mL (≈ 123 µM).

Regarding `CCOc1ccc2sc(S(C)(=O)=O)nc2c1S(=O)(=O)Nc1ccc([N+](=O)[O-])cc1`, the minimal inhibitory concentration (MIC) worked out at 10 µg/mL (≈ 21.9 µM).

A further assay has as its system Escherichia coli. The assay can be described thus: Antibacterial activity against Escherichia coli ATCC 35421 after 24 to 48 hrs by macro-broth dilution method. The format is functional.
Conditions: not given
Consider `CCOc1ccc2sc(S(C)(=O)=O)nc2c1S(=O)(=O)NC(CC)CC`, for which the MIC came to 50 µg/mL (≈ 123 µM).

As for `CCOc1ccc2sc(S(C)(=O)=O)nc2c1S(=O)(=O)Nc1ccc([N+](=O)[O-])cc1`, the MIC stood at 20 µg/mL (≈ 43.7 µM).

The subject of the next assay is Escherichia coli. The assay can be described thus: Antibacterial activity against Escherichia coli ATCC 20732 after 24 to 48 hrs by macro-broth dilution method. The format is functional.
Conditions: not given
Regarding `CCOc1ccc2sc(S(C)(=O)=O)nc2c1S(=O)(=O)NC(CC)CC`, the MIC stood at 50 µg/mL (≈ 123 µM).

`CCOc1ccc2sc(S(C)(=O)=O)nc2c1S(=O)(=O)Nc1ccc([N+](=O)[O-])cc1` returned an MIC of 20 µg/mL (≈ 43.7 µM).

The test system of the next assay is Pseudomonas aeruginosa. The assay can be described thus: Antibacterial activity against Pseudomonas aeruginosa M5 after 24 to 48 hrs by macro-broth dilution method. Format: functional.
Conditions: not given
Regarding `CCOc1ccc2sc(S(C)(=O)=O)nc2c1S(=O)(=O)NC(CC)CC`, the MIC is 100 µg/mL (≈ 246 µM).

On to `CCOc1ccc2sc(S(C)(=O)=O)nc2c1S(=O)(=O)Nc1ccc([N+](=O)[O-])cc1`, for which the MIC was found to be 50 µg/mL (≈ 109 µM).

The next assay deals with HeLa. The assay can be described thus: Cytotoxicity against human HeLa cells assessed as cell growth at 10^-7 M after 48 hrs by SRB assay relative to control. The format is functional. The settings on record: read-out: Activity. A general note: In SRB staining, fixed cells bind dye roughly in proportion to their protein.
As for `CCOc1ccc2sc(S(C)(=O)=O)nc2c1S(=O)(=O)NC(CC)CC`, the growth at 0.1 µM worked out at 91.8%.

Consider `CCOc1ccc2sc(S(C)(=O)=O)nc2c1S(=O)(=O)Nc1ccc([N+](=O)[O-])cc1`, for which the growth at 0.1 µM is 98.3%.

For another assay, the system named is HeLa. The assay can be described thus: Cytotoxicity against human HeLa cells assessed as cell growth at 10^-6 M after 48 hrs by SRB assay relative to control. Format: functional. The settings on record: read-out: Activity.
For `CCOc1ccc2sc(S(C)(=O)=O)nc2c1S(=O)(=O)NC(CC)CC`, the growth at 1 µM came to 89.4%.

As for `CCOc1ccc2sc(S(C)(=O)=O)nc2c1S(=O)(=O)Nc1ccc([N+](=O)[O-])cc1`, the growth at 1 µM came out at 46.2%.

In the next assay the test system is HeLa. The assay can be described thus: Cytotoxicity against human HeLa cells assessed as cell growth at 10^-5 M after 48 hrs by SRB assay relative to control. The settings on record: read-out: Activity. Format: functional.
As to `CCOc1ccc2sc(S(C)(=O)=O)nc2c1S(=O)(=O)NC(CC)CC`, the growth at 10 µM turned out to be 35.6%.

For the compound `CCOc1ccc2sc(S(C)(=O)=O)nc2c1S(=O)(=O)Nc1ccc([N+](=O)[O-])cc1`, the growth at 10 µM is -12.3%.

The subject of the next assay is HeLa. The assay can be described thus: Cytotoxicity against human HeLa cells assessed as cell growth at 10^-4 M after 48 hrs by SRB assay relative to control. The settings on record: read-out: Activity. Format: functional.
Consider `CCOc1ccc2sc(S(C)(=O)=O)nc2c1S(=O)(=O)NC(CC)CC`, for which the growth at 100 µM is -65.8%.

Take `CCOc1ccc2sc(S(C)(=O)=O)nc2c1S(=O)(=O)Nc1ccc([N+](=O)[O-])cc1`: the growth at 100 µM was -67.8%.

Another assay has as its system HeLa. The assay can be described thus: Growth inhibition of human HeLa cells after 48 hrs by SRB assay. The format is functional.
Conditions: not given
Usually GI50 stands for the concentration giving 50% growth inhibition. Broadly, the LC50 is the concentration lethal to half of the exposed cells or organisms. Read a low LC50 as a more lethal substance. A word on the TGI: it is the concentration at which net growth stops. Read a high TGI as less potent growth arrest. For `CCOc1ccc2sc(S(C)(=O)=O)nc2c1S(=O)(=O)NC(CC)CC`, the GI50 is 19.5 µM, the LC50 was determined as 87.4 µM, net growth stopped (TGI) at 53.5 µM and the “growth inhibition (GI)” value is “Dose-dependent effect”.

Regarding `CCOc1ccc2sc(S(C)(=O)=O)nc2c1S(=O)(=O)Nc1ccc([N+](=O)[O-])cc1`, halving of growth (GI50) required 0.22 µM, the LC50 came to 81.5 µM, total growth inhibition (TGI) required 40.8 µM and the “growth inhibition (GI)” value was “Dose-dependent effect”.

In the next assay the test system is HeLa. The assay can be described thus: Cytotoxicity against human HeLa cells assessed as reduction in cell viability after 48 hrs by SRB assay. Format: functional, cell-based.
Conditions: not given
As for `CCOc1ccc2sc(S(C)(=O)=O)nc2c1S(=O)(=O)NC(CC)CC`, the Activity result is “Dose-dependent effect”.

In the case of `CCOc1ccc2sc(S(C)(=O)=O)nc2c1S(=O)(=O)Nc1ccc([N+](=O)[O-])cc1`, the Activity result is “Dose-dependent effect”.
